This assay concerns the target T1, endogenous wild-type K-Ras protein (Homo sapiens, UniProt P01116).
T1 construct: an endogenous wild-type K-Ras protein and wild-type H-Ras protein in HeLa cells; endogenous in cells; host or cells: HeLa cells
The assay can be described thus: Degradation of endogenous wild-type K-Ras protein in HeLa cells, Western blot analysis. Conditions: 48 hours after addition. The format is cell-based. The method, then:
HeLa cells were seeded in a 24-well plate at a cell density of 8×10^4 cells/well, and then cultured under conditions of 37° C. and 5 vol % CO2 for 16 hours.
After 16 hours from cell seeding, TUS-007 was added to HeLa cells as follows. As a medium, a serum-free medium (37° C.) in which 1 mass % L-glutamine solution (Sigma-Aldrich) was added to D-MEM (high D-glucose, phenol red, sodium pyruvate (Wako Pure Chemical Industries, Ltd.)) was used. It is noted that the L-glutamine solution was added immediately before use. A DMSO solution containing TUS-007 was mixed with the medium so that the concentration of DMSO was 1 vol %, and added to each well at 500 μL/well, and cultured under conditions of 37° C. and 5 vol % CO2. As a control, DMSO was used.
The medium was removed 48 hours after addition of TUS-007, and then PBS was added to wash the cells. […]
After electrophoresis, proteins were transferred to a PVDF membrane (Immobion™-P, Millipore) under conditions of 100 V and 2 hours using a tank-type blotting device and a transfer buffer (25 mM Tris-HCl, 195 mM glycine, 0.01% SDS, 15% methanol). […] Subsequently, the membrane was treated with a chemiluminescence reagent Immobilon™ Western (Millipore), and then chemiluminescence was detected using a lumino image analyzer LAS-3000 (FUJIFILM Corporation). […]
(In western blotting, separated proteins are transferred to a membrane and probed.)

This note sets out measurements from US20190369111A1, “MOLECULAR KINETICS EVALUATION METHOD AND SCREENING METHOD” (Tokyo University of Science Foundation, priority 2016, published 2019).

T1 sequence (P01116 1-188 isoform P01116-2): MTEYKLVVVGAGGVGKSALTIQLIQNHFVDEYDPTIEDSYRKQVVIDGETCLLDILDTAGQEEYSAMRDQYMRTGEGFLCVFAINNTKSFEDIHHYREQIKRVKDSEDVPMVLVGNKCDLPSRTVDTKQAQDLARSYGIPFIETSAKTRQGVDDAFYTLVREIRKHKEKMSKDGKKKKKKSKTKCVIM

For the compound `CC[C@@H](C)[C@H](NC(=O)CCCCCCNC(=O)[C@H](CC(C)C)NC(=O)CNC(=O)c1cc(Cl)ccc1Cl)C(=O)Nc1ccc2[nH]c(Cc3c[nH]c4ccccc34)nc2c1` [TUS-007], the “amount of endogenous wild-type K-Ras protein” value is “reduced”.
